{
  "source": "paper PMC8578336",
  "about": "“Neuroprotection of retinal ganglion cells by the sigma-1 receptor agonist pridopidine in models of experimental glaucoma” (Scientific Reports, 2021)",
  "key": {"Kappa opioid receptor": {"target": "Kappa opioid receptor", "parameters": "method as in PMID 16125682", "conditions": "cited from earlier work"}, "S1R": {"target": "S1R", "conditions": "cited from earlier work"}, "striatal neurons": {"system": "striatal neurons", "conditions": "1 μM, 24 h; NMDA 10 µM + glycine 20 µM 15 min; p = 0.0072", "description": "(§1) (b) Quantification of OCR rate. […] Mitochondrial membrane potential was measured in isolated striatal mitochondria using Rhodamine123 (d) and quantified (e). […] Data are the mean ± SEM. All experiments were run in triplicates. *p < 0.05, **p < 0.01 by non-parametric Kruskal–Wallis test or Mann–Whitney test (in e).\nStriatal neurons were isolated as previously described[78] from embryos at gestational day 16–17."}, "[1]": {"system": "mouse striatal neuronal cultures", "conditions": "1 μM, 24 h", "description": "as §1, with “Previous studies have shown a regulatory role of the S1R in mitochondrial function in retinal ganglion cells under stress[36]–[39]. […] (b)” for “(b)”\nStriatal neurons were isolated as previously described[78] from embryos at gestational day 16–17. […] Pridopidine was added for 24 h."}, "[2]": {"system": "retinal ganglion cells (RGCs)", "conditions": "for Loss of RBPMS-positive RGCs, lasered vs control eye (difference): 14 days; for Number of RGCs per retinal area, mean: 125/55 criterion", "description": "(§2) The laser coagulation (LC) model of experimental glaucoma was utilized in Wistar rats. Additional benefits of using this model are avoiding idiosyncratic features inherent to a single model and increasing the likelihood of future translatability to human glaucoma[28],[29]. Both models utilize elevation of IOP, but to different degrees and with different time courses. Unilateral induction of IOP elevation was performed twice, at day 0 and day 7. […] IOP was measured at baseline, and after laser photocoagulation on days 1, 4, 7, 8, and 14 (Fig. 3a). At the end of the study, RGC numbers were assessed by immunostaining (Fig. 3b).\nThe number of RGCs was quantified using immunofluorescent staining for RNA-binding protein with multiple splicing (RBPMS), an RGC-specific marker, followed by stereological analysis of the entire retina[30] (Fig. 3c).\nIOP was measured with a TonoLab tonometer.\nCompounds were administered daily by oral gavage. On day 14 rats were sacrificed by transcardial perfusion, first with 0.9% NaCl solution, then with 4% PFA in 0.1 M phosphate buffer, pH 7.4. Eyes and optic nerves were collected for immunohistochemical analysis.\nRetinal flat-mounts were immunostained with rabbit anti-RBPMS (PhosphoSolutions) and DAPI nuclear stain. Total number of RBPMS-positive cells was estimated using stereology as previously described."}, "optic nerve axons": {"system": "optic nerve axons", "conditions": "for Loss of optic nerve axons vs. control eye (difference): 14 days; for Number of optic nerve axons, mean: 125/55 criterion", "description": "as §2\nNeuroprotective preservation of visual function in glaucoma and other optic neuropathies depends not only on preservation of cell bodies, but also on maintaining connectivity between the eye and the brain. Connectivity is preserved by protecting RGC axons[31]–[33], i.e. axoprotection. To study this, the number of optic nerve axons per optic nerve area was compared between different treatment groups (Fig. 4a,b). […] Compounds were administered daily by oral gavage. On day 14 rats were sacrificed by transcardial perfusion, first with 0.9% NaCl solution, then with 4% PFA in 0.1 M phosphate buffer, pH 7.4. Eyes and optic nerves were collected for immunohistochemical analysis.\nOptic nerves were postfixed in 4% PFA (in 0.1 M phosphate buffer, pH 7.4), placed in 1% osmium, dehydrated in ascending alcohol concentrations, and placed in 1% uranyl acetate in 100% ethanol for 1 h[76],[77]. Optic nerves were embedded in epoxy resin mixture at 60 °C for 48 h and 1 µm sections prepared. Axon number was estimated using stereology, as previously described."}, "human lymphoblasts [3]": {"system": "human lymphoblasts", "conditions": "5 μM pretreatment 24 h; H2O2 0.1 mM 6 h; p < 0.0001", "description": "(§3) ROS levels were quantified by co-staining with CellRox and DAPI. (a) Representative image and (b) quantification. […] Data is the mean ± SEM. *p < 0.05, ***p < 0.001, ****p < 0.0001 by two-way ANOVA with a Tukey’s multiple comparisons in (b), by non-parametric Mann–Whitney in (d), or Kruskal–Wallis test in (c) and (e). Full-length blots are presented in Supplementary Fig. 2.\n(§4) Lymphoblasts (Corriel Institute, GM02174) were grown in RPMI medium containing 10% FBS, 2 mM L-glutamax, and 100 U/mL penicillin–streptomycin and passaged every 5–6 days. […] S1R knockdown was achieved using S1R-directed siRNA duplexes (Origene, cat no: SR426072). Transfection with Polyplus JETPRIME transfection protocol was performed 48 h before experiments. S1R knockdown was assessed by immunoblot."}, "human lymphoblasts [4]": {"system": "human lymphoblasts", "conditions": "5 µM, 24 h", "description": "as §3\nMitochondrial function was then assessed with the MMP-dependent probe TMRE (tetramethylrhodamine ethyl ester).\nas §4"}, "[5]": {"system": "retinal ganglion cells (RGCs)", "conditions": "for RGC loss (%): OD vs OS eye, mean ± SEM", "description": "Hypertonic saline injection (HSI) was performed on day 0 and day 7 into the episcleral veins of the right eye of pigmented Brown Norway rats in order to create a sustained increase of IOP.\nOver the course of the study, animals were clinically evaluated daily, and IOP and body weight measured weekly (Fig. 1a).\nThe number of RGCs was quantified using immunofluorescent staining for the RGC marker brain-specific homeobox/POU domain protein 3A (Brn-3a), followed by image analysis. RGCs were counted in one medial and one distal area in each retinal quadrant, up to eight regions per retina (Fig. 1c, Supp Table 4). The percent of RGC loss was calculated by comparing the number of RGC counts per retina in the OD eye to that in the OS eye. […] Rats were sedated with ketamine and xylazine (40–80 and 5–10 mg/kg, respectively), kept warm and eyes moist to avoid desiccation during the procedure. Eye surface was treated with erythromycin (0.5%). On Days 0 and 7, hypertonic saline solution (250 μL, NaCl, 1.8–2.0 M) was injected into the limbal vascular plexus via different episcleral veins in the OHT eye.\nEyes were immediately enucleated following CO2 euthanasia and fixed in paraformaldehyde (PFA, 4%) at 4 °C for 24 h, then dissected in PBS. Retinas were permeabilized in PBS + 0.5% Triton X-100 for 15 min, frozen at − 80 °C for 15 min, then rinsed in PBS-0.5% Triton. […] Four radial cuts were made in the retina and it was flat-mounted. Two regions of interest (medial and distal) were acquired in each quadrant with fluorescent microscopy, and RGCs counted using ImageJ."}, "[6]": {"system": "isolated striatal mitochondria", "conditions": "30 mg/kg daily for 45 days; p = 0.0013", "description": "as §1"}, "[7]": {"target": "empopamil binding protein (EBP)", "parameters": "method as in PMID 11377189", "conditions": "cited from earlier work"}},
  "note": "pKi: −log10 of the molar value. Structures can show the parent of a compound that is named as a salt. Where two headings read alike, the source gives them in different places.",
  "data": [
    {"smiles": "CC(C)=CCN1CC[C@]2(C)c3cc(O)ccc3C[C@H]1[C@H]2C", "note": "[PTZ, (+)pentazocine]", "values": [
      {"measurement": "pKi", "setting": "Kappa opioid receptor", "result": 8.66}
    ]},
    {"smiles": "CCCN1CCC(c2cccc(S(C)(=O)=O)c2)CC1", "note": "[Pridopidine]", "values": [
      {"measurement": "pKi", "setting": "S1R", "result": 7.24},
      {"measurement": "Mitochondrial membrane potential (MMP) after NMDA plus glycine", "setting": "striatal neurons", "result": "rescues the decrease in MMP"},
      {"measurement": "ATP production", "setting": "[1]; p = 0.0015", "result": "significantly increases"},
      {"measurement": "Maximal mitochondrial respiration", "setting": "[1]; p = 0.0061", "result": "significantly increases"},
      {"measurement": "Basal mitochondrial respiration", "setting": "[1]; p = 0.0082", "result": "significantly increases"},
      {"measurement": "Loss of RBPMS-positive RGCs, lasered vs control eye (difference)", "setting": "[2]; 3 mg/kg daily oral", "result": 5.2, "unit": "%"},
      {"measurement": "Number of RGCs per retinal area, mean", "setting": "[2]; 3 mg/kg, control eye", "result": 1404},
      {"measurement": "Number of RGCs per retinal area, mean", "setting": "[2]; 3 mg/kg, lasered eye", "result": 1315},
      {"measurement": "Loss of RBPMS-positive RGCs, lasered vs control eye (difference)", "setting": "[2]; 30 mg/kg daily oral", "result": 7.7, "unit": "%"},
      {"measurement": "Number of RGCs per retinal area, mean", "setting": "[2]; 30 mg/kg, control eye", "result": 1444},
      {"measurement": "Number of RGCs per retinal area, mean", "setting": "[2]; 30 mg/kg, lasered eye", "result": 1336},
      {"measurement": "Loss of RBPMS-positive RGCs, lasered vs control eye (difference)", "setting": "[2]; 60 mg/kg daily oral", "result": 13.9, "unit": "%"},
      {"measurement": "Number of RGCs per retinal area, mean", "setting": "[2]; 60 mg/kg, control eye", "result": 1417},
      {"measurement": "Number of RGCs per retinal area, mean", "setting": "[2]; 60 mg/kg, lasered eye", "result": 1198},
      {"measurement": "Axoprotection of optic nerves compared to the vehicle group", "setting": "optic nerve axons; 3 mg/kg", "result": 69, "unit": "%"},
      {"measurement": "Loss of optic nerve axons vs. control eye (difference)", "setting": "optic nerve axons; 3 mg/kg daily oral, p = 0.006", "result": 8.6, "unit": "%"},
      {"measurement": "Number of optic nerve axons, mean", "setting": "optic nerve axons; 3 mg/kg, control eye", "result": 394},
      {"measurement": "Number of optic nerve axons, mean", "setting": "optic nerve axons; 3 mg/kg, lasered eye", "result": 358},
      {"measurement": "Axoprotection of optic nerves compared to the vehicle group", "setting": "optic nerve axons; 30 mg/kg", "result": 45, "unit": "%"},
      {"measurement": "Loss of optic nerve axons vs. control eye (difference)", "setting": "optic nerve axons; 30 mg/kg daily oral, p = 0.04", "result": 15, "unit": "%"},
      {"measurement": "Number of optic nerve axons, mean", "setting": "optic nerve axons; 30 mg/kg, control eye", "result": 433},
      {"measurement": "Number of optic nerve axons, mean", "setting": "optic nerve axons; 30 mg/kg, lasered eye", "result": 363},
      {"measurement": "Axoprotection of optic nerves compared to the vehicle group", "setting": "optic nerve axons; 60 mg/kg", "result": 74, "unit": "%"},
      {"measurement": "Loss of optic nerve axons vs. control eye (difference)", "setting": "optic nerve axons; 60 mg/kg daily oral, p = 0.002", "result": 7.6, "unit": "%"},
      {"measurement": "Number of optic nerve axons, mean", "setting": "optic nerve axons; 60 mg/kg, control eye", "result": 395},
      {"measurement": "Number of optic nerve axons, mean", "setting": "optic nerve axons; 60 mg/kg, lasered eye", "result": 365},
      {"measurement": "H2O2-induced ROS production (CellRox staining)", "setting": "human lymphoblasts [3]", "result": "significantly ameliorated"},
      {"measurement": "H2O2-induced reduction of MMP (TMRE)", "setting": "human lymphoblasts [4]; S1R genetically silenced with siRNA", "result": "unable to rescue MMP"},
      {"measurement": "H2O2-induced reduction of MMP (TMRE)", "setting": "human lymphoblasts [4]; S1R-expressing cells, p = 0.0002", "result": "rescues this effect"},
      {"measurement": "RGC loss (%)", "setting": "[5]; 3 mg/kg daily oral gavage day 1-41", "result": "25 ± 7", "unit": "%"},
      {"measurement": "Mean RGC count/animal", "setting": "[5]; 3 mg/kg, OD eye", "result": 105.25},
      {"measurement": "Mean RGC count/animal", "setting": "[5]; 3 mg/kg, OS eye", "result": 144.75},
      {"measurement": "RGC loss (%)", "setting": "[5]; 30 mg/kg daily oral gavage day 1-41", "result": "21 ± 6", "unit": "%"},
      {"measurement": "Mean RGC count/animal", "setting": "[5]; 30 mg/kg, OD eye", "result": 122.78},
      {"measurement": "Mean RGC count/animal", "setting": "[5]; 30 mg/kg, OS eye", "result": 158.56},
      {"measurement": "RGC neuroprotection compared to vehicle control", "setting": "[5]; 30 mg/kg, p = 0.019", "result": 50, "unit": "%"},
      {"measurement": "RGC loss (%)", "setting": "[5]; 60 mg/kg daily oral gavage day 1-41", "result": "7 ± 9", "unit": "%"},
      {"measurement": "Mean RGC count/animal", "setting": "[5]; 60 mg/kg, OD eye", "result": 116.50},
      {"measurement": "Mean RGC count/animal", "setting": "[5]; 60 mg/kg, OS eye", "result": 130.40},
      {"measurement": "RGC neuroprotection compared to vehicle control", "setting": "[5]; 60 mg/kg, p = 0.005", "result": 83, "unit": "%"},
      {"measurement": "MMP in isolated mitochondria from treated mice", "setting": "[6]", "result": "increase in MMP"}
    ]},
    {"smiles": "COc1ccc(CCN2CCN(CCCc3ccccc3)CC2)cc1OC", "note": "[SA4503, cutamesine dihydrochloride, reference compound]", "values": [
      {"measurement": "pKi", "setting": "S1R", "result": 7.76},
      {"measurement": "pKi", "setting": "[7]", "result": 8.76}
    ]}
  ]
}
